The results in this text go back to patent publication US20230331707A1, “PROGRAMMED CELL NECROSIS INHIBITOR, PREPARATION METHOD THEREFOR, AND USE THEREOF” (Shanghai Institute of Organic Chemistry, Chinese Academy of …, priority 2020, published 2023).

Like-named read-outs stand apart in the source and are kept apart here.

Series [1] relates to MEFs cells expressing RIPK1 S161E mutant. Nature of the series: TSZ-induced programmed necrosis in MEFs cells expressing RIPK1 S161E mutant. The format is cell-based, mouse. The text has this: (§1) The adopted biological test protocol was: the effect of compounds on programmed necrosis in MEFs cells (mouse embryonic fibroblasts) with RIPK1 S161E mutation.
(§2) In order to verify the inhibitory effect of the compound of the present invention on the highly activated RIPK1 kinase at the cellular level, MEFs cells stably expressing RIPK1 S161E (simulating the activation state of RIPK1 after phosphorylation) were selected, TNFα-SM164-zVAD (Caspase inhibitor for inhibiting apoptosis) (TSZ) was used in combination to induce programmed cell necrosis, and cell viability was calculated by detecting chemiluminescence values, thereby obtaining the biological activity of the compound in inhibiting programmed necrosis.
(§3) Methods: MEFs cells replenished by RIPK1: WT-RIPK1, S161A-RIPK1 and S161E-RIPK1 were replenished in RIPK1 stable knockout cells respectively. After stable expression and being cultured to logarithmic growth phase, the cells were collected, and centrifuged at 1000 rpm for 5 min. The supernatant was discarded. Cell concentration was adjusted to 5×10^4/mL, and cells were inoculated into 384-well plates with 40 μL per well. Cell culture medium diluted SM164 (100 nM), zVAD (50 μM) and compound, each […], were added to the corresponding wells. After pretreatment at 37° C. for 1 h, 5 μL of cell culture medium diluted TNF (50 ng/mL) was added to each well in the stimulated group and 5 μL of culture medium was added to the control group. […] The unstimulated DMSO control wells (Ctrl) were taken as 100% cell viability. EC50 values of the compounds were calculated using Prism Graphpad statistical software.

In series [2] the test system is MEFs cells expressing RIPK1 WT. Nature of the series: TSZ-induced programmed necrosis in MEFs cells expressing RIPK1 WT. The format is cell-based, mouse.
Description: as §1, §2, §3

The next series has as its system L929 cells. The series is described as follows: Inhibition of TNF-induced programmed necrosis of L929 cells (Cell Titer-Glo viability). The class given is cell-based, mouse. The settings on record: for inhibition of programmed necrosis (in words): mouse-derived L929 cells. An outline of the steps:
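Mouse L929 fibroblasts were diluted to 6.25×10^4/ml, plated at 40 μl per well in 384-well plates, and incubated 12 hours at 37° C., 5% CO2. Compounds were added, with SM164 (500 nM) for the combination arm, and pretreated 1 h before TNFα (500 ng/mL). After 14 h, viability was read by Cell Titer-Glo luminescence against unstimulated DMSO controls, and EC50 values were fitted in Prism Graphpad.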
In general terms: Cellular ATP, detected with luciferase, serves as a proxy for viable cell number.

Another series concerns FADD−/− Jurkat cells. Nature of the series: Inhibition of TNF-induced programmed necrosis of FADD deficient Jurkat cells (Cell Titer-Glo viability). The class given is cell-based. An outline of the steps:
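FADD-deficient human Jurkat T leukemia cells in log phase were adjusted to 2.5×10^5/mL and plated at 40 μl per well in 384-well plates. Compounds were added, with SM164 (50 nM) where used, for a 1 h pretreatment at 37° C. TNFα (50 ng/mL) was then added, and cells were incubated 14 h at 37° C, 5% CO2. Viability was read as ATP luminescence with Cell Titer-Glo after 30 min at room temperature, with unstimulated DMSO wells set as 100%. EC50 values were calculated in Prism Graphpad.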

Series [3] is described as follows: Liver microsomal stability test, human. The format is in vitro ADME. The settings on record: human liver microsomes, NADPH, 37° C.; for half-life at 1 µM: human, liver microsomes, read-out: T1/2 (min) Human. The text has this: (§4) The adopted biological test protocol was: testing the half-life of the compound in human- or mouse-derived liver microsomes.
(§5) Liver microsomes contain many enzymes involved in drug metabolism, especially cytochrome P-450, and therefore it is one of the major tissues involved in drug metabolism in living organisms. There are some correlations between the stability of the compound in liver microsomes and the pharmacogenetic stability thereof in vivo. Therefore, the relative stability of compounds in vivo can be roughly predicted by testing the half-life of different compounds in human- or mouse-derived liver microsomes. The specific methods were as follows:
(§6) Methods: 0.75 μL of 0.5 mM samples (compounds to be tested and control verapamil), 9.38 μL of 20 mg/mL liver microsomes (Human and Mouse) were taken and added to 239.88 μL PBS (on ice), and divided into 30 μL/tube samples respectively. The samples were incubated at 37° C. in a constant temperature water bath for 5 min, and then all samples were taken out. At zero-time, control group was added with 90 μL of ice acetonitrile first, and then added with 15 μL of 3 mM NADPH solution sequentially, and incubated at 37° C. in a constant temperature water bath. The corresponding samples were taken out after 5 min, 10 min, 20 min, 30 min and 60 min, respectively, and quenched by adding 90 μL of ice acetonitrile. All samples were centrifuged at 10000 rpm for 10 min, and the supernatants were taken and placed in a liquid phase vial waiting for LC-MS analysis.
In general terms: Liver microsomes are a subcellular fraction often used to study metabolism.

Series [4] is described as follows: Liver microsomal stability test, mouse. Particulars: mouse liver microsomes, NADPH, 37° C.; for half-life at 1 µM: mouse, liver microsomes, read-out: T1/2 (min) Mouse. The format is in vitro ADME.
Description: as §4, §5, §6

Setting [5] is: Mus musculus, L929, L929 cells, stimulated with TNFα + SM164, read-out: EC50 (μM) L929 cells (mouse) TNFα + SM164.
[6] abbreviates: Mus musculus, L929, L929 cells, stimulated with TNFα alone, read-out: EC50 (μM) L929 cells (mouse) TNFα.
[7] abbreviates: Homo sapiens, Jurkat, 14 h, FADD−/− Jurkat cells, stimulated with TNFα + SM164, read-out: EC50 (μM) FADD−/− Jurkat cells (human) TNFα + SM164.
The mark [8] stands for this setting: Homo sapiens, Jurkat, FADD−/− Jurkat cells, stimulated with TNFα alone, read-out: EC50 (μM) FADD−/− Jurkat cells (human) TNFα.
Setting [9] is: L929 cells, stimulated with TNFα + SM164, read-out: EC50 (μM) L929 cells (mouse) TNFα + SM164.
The mark [10] stands for this setting: L929 cells, stimulated with TNFα alone, read-out: EC50 (μM) L929 cells (mouse) TNFα.
The mark [11] stands for this setting: FADD−/− Jurkat cells, stimulated with TNFα + SM164, read-out: EC50 (μM) FADD−/− Jurkat cells (human) TNFα + SM164.

In the case of `CN1C(=O)[C@@H](NC(=O)c2n[nH]c(Cc3ccccc3)n2)COc2ccccc21` [GSK2982772, reference compound], the figures for the “inhibition of programmed necrosis” value in series [1] (10 μM) and in series [2] (10 μM) were “only shows weak inhibition” and “can effectively inhibit the occurrence of programmed necrosis”, respectively. Moreover, the EC50 was greater than 10000 nM in the series on L929 cells (setting [5]); 2510 nM in the series on L929 cells (setting [6]); 4 nM in the series on FADD−/− Jurkat cells (setting [7]); 0.68 nM with FADD−/− Jurkat cells (Homo sapiens, Jurkat, read-out: EC50 (μM) FADD−/− Jurkat cells (human) TNFα). In addition, in the series on L929 cells, the “inhibition of programmed necrosis (in words)” value is “almost inactive”.
As to `CN1C(=O)N[C@H](Cc2c[nH]c3c(Cl)cccc23)C1=O` [Nec-1s, reference compound], the “inhibition of programmed necrosis” value in series [1] (10 μM) was “does not exhibit inhibition”; in series [2] (10 μM), “can effectively inhibit the occurrence of programmed necrosis”. The EC50 in the series with L929 cells (Mus musculus, L929, read-out: EC50 (μM) L929 cells (mouse) TNFα) came out at 443 nM; in the series with FADD−/− Jurkat cells (setting [7]), 900 nM; with FADD−/− Jurkat cells (setting [8]), 228 nM.
For the molecule `Cn1nc(C(=O)NCc2ccc(-n3cnc4c(N)ncnc43)cc2)cc1Cc1ccccc1` [QY-8-43, N-(4-(6-amino-9H-purin-9-yl)benzyl)-5-benzyl-1-methyl-1H-pyrazole-3-carboxamide], the EC50 was found to be 152 nM in the series on L929 cells (setting [9]); 11.1 nM in the series with L929 cells (setting [10]); 17.7 nM with FADD−/− Jurkat cells (setting [11]); 2.85 nM in the series on FADD−/− Jurkat cells (FADD−/− Jurkat cells, stimulated with TNFα alone, read-out: EC50 (μM) FADD−/− Jurkat cells (human) TNFα). The half-life at 1 µM in series [3] came to 38.5 min; in series [4] it was 23.9 min.
In the case of `CCn1nc(C(=O)NCc2ccc(-n3ccc4c(N)ncnc43)cc2)cc1Cc1ccccc1` [QY-9-33], the EC50 in the series with L929 cells (setting [5]) is greater than 10000 nM; in the series with L929 cells (setting [6]), greater than 10000 nM; in the series on FADD−/− Jurkat cells (setting [7]), 1040 nM; with FADD−/− Jurkat cells (setting [8]), 3.77 nM. The half-life at 1 µM was determined as 9.6 min in series [3] and 11.2 min in series [4].
In the case of `CCn1nc(C(=O)NCc2ccc(-n3cnc4c(N)ncnc43)cc2)cc1Cc1ccccc1` [QY-9-34], the EC50 was greater than 10000 nM in the series on L929 cells (setting [5]), 8360 nM in the series with L929 cells (setting [6]), 3.52 nM in the series on FADD−/− Jurkat cells (setting [7]) and 0.416 nM in the series on FADD−/− Jurkat cells (setting [8]). The results for the half-life at 1 µM in series [3] and in series [4] were 14.7 min and 13.9 min, respectively.
As for `Nc1ncnc2c1ccn2-c1ccc(CN2CCc3cn(Cc4ccccc4)nc3C2=O)cc1` [QY-9-41], the EC50 with L929 cells (setting [5]) was greater than 10000 nM; in the series with L929 cells (setting [6]), greater than 10000 nM; in the series on FADD−/− Jurkat cells (setting [7]), 234 nM; in the series on FADD−/− Jurkat cells (setting [8]), 21.5 nM. For the same molecule, the half-life at 1 µM in series [3] came to 38.5 min; in series [4], 36.5 min.
Regarding `Nc1ncnc2c1ncn2-c1ccc(CN2CCc3cn(Cc4ccccc4)nc3C2=O)cc1` [QY-9-50], the EC50 is 2730 nM in the series on L929 cells (setting [5]), 1390 nM in the series on L929 cells (setting [6]), 12.1 nM in the series with FADD−/− Jurkat cells (setting [7]) and 0.191 nM in the series with FADD−/− Jurkat cells (setting [8]). Besides, the half-life at 1 µM in series [3] stood at 86.6 min; in series [4], 116 min.
As to `CN1CCN(CCNC(=O)c2ccc3c(c2)ncn3-c2ccc(CNC(=O)c3cnn(C)c3Cc3ccccc3)cc2)CC1` [QY-11-69B], the EC50 worked out at 1.08 nM in the series on L929 cells (setting [5]), 0.563 nM with L929 cells (setting [6]), 6.33 nM in the series with FADD−/− Jurkat cells (setting [7]) and 0.984 nM in the series with FADD−/− Jurkat cells (setting [8]). For the same molecule, the figures for the half-life at 1 µM in series [3] and in series [4] were 43.3 min and 46.2 min, respectively.
In the case of `COc1cc2ncn(-c3ccc(CNC(=O)c4cnn(C)c4Cc4ccccc4)cc3)c2cc1OC` [QY-11-76], the results for the “inhibition of programmed necrosis” value in series [1] (600 nM) and in series [2] (600 nM) were “can significantly inhibit occurrence of programmed necrosis” and “can effectively inhibit the occurrence of programmed necrosis”, respectively. In addition, the EC50 in the series with L929 cells (setting [5]) worked out at 0.432 nM; in the series with L929 cells (setting [6]), 0.0598 nM; in the series on FADD−/− Jurkat cells (setting [7]), 0.05 nM; with FADD−/− Jurkat cells (setting [8]) it was 0.0243 nM. Moreover, the “inhibition of programmed necrosis (in words)” value in the series with L929 cells was “excellently inhibit the occurrence of programmed necrosis”. Further, in the series on FADD−/− Jurkat cells (human FADD-deficient Jurkat cells, TNFα alone or in combination with SM164), the “activity of inhibition of programmed necrosis compared with GSK2982772” value was “stronger activity”.
For `Cn1ncc(C(=O)NCc2ccc(-n3cnc4c(N)nccc43)cc2)c1Cc1ccccc1` [QY-11-77], the “inhibition of programmed necrosis” value in series [1] (600 nM) is “can significantly inhibit occurrence of programmed necrosis”; in series [2] (600 nM) it was “can effectively inhibit the occurrence of programmed necrosis”. Further, the EC50 in the series on L929 cells (setting [5]) stood at 0.63 nM; in the series with L929 cells (setting [6]) it was 1.17 nM; in the series with FADD−/− Jurkat cells (setting [7]), 0.838 nM; in the series on FADD−/− Jurkat cells (setting [8]), 0.012 nM.
Consider `Cn1ncc(C(=O)NCc2ccc(-n3cnc4c(N)ncnc43)cc2)c1Cc1ccccc1` [QY-11-78], for which the EC50 in the series with L929 cells (setting [9]) amounted to 23.2 nM; in the series with L929 cells (setting [10]), 9.87 nM; in the series on FADD−/− Jurkat cells (setting [11]), 0.689 nM; in the series on FADD−/− Jurkat cells (setting [8]) it was 0.036 nM. In series [3], the “T1/2 (min) Human” value is listed as 12.6 min. The “T1/2 (min) Mouse” value in series [4] turned out to be 23.9 min.
With `CCn1nc(C(=O)NCc2ccc(-n3cnc4cc(C(=O)NC)ccc43)cc2)cc1Cc1ccccc1` [XHJ-4-36], the EC50 is greater than 10000 nM in the series on L929 cells (setting [5]), 10.7 nM in the series on L929 cells (setting [6]), 42.8 nM with FADD−/− Jurkat cells (setting [7]) and 5.91 nM in the series on FADD−/− Jurkat cells (setting [8]). Moreover, the half-life at 1 µM in series [3] worked out at 46.2 min; in series [4], 10.7 min.
Take `CNC(=O)c1ccc2c(c1)ncn2-c1ccc(CNC(=O)c2nnn(Cc3ccccc3)n2)cc1` [ZSQ-13-36]: the EC50 in the series with L929 cells (setting [5]) is 4310 nM; with L929 cells (setting [6]), 1110 nM; in the series on FADD−/− Jurkat cells (setting [7]) it was 150 nM; with FADD−/− Jurkat cells (setting [8]) it was 24 nM. For the same molecule, the half-life at 1 µM in series [3] and in series [4] was 99 min in each case.
